Source: ChEMBL document CHEMBL1201862, “PubChem BioAssay data set” (2004)
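Grown in 96-well plates, cells were treated for 48 hours with each compound at five concentrations. Insufficient inhibition: endpoint recorded as highest concentration tested. GI50 marks 50% less growth.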 Active and inactive are the calls of the source. No stated cut-off is given here; in the data, active = GI50 up to about 1.1 µM and inactive = higher.

Columns and labels:
Test in all cases: NCI anticancer screen, dose series, 48 h
RPMI-8226 = system: RPMI-8226
UACC-257 = system: UACC-257
SK-OV-3 = system: SK-OV-3
NCI-H226 = system: NCI-H226
786-0 = system: 786-0
SF-295 = system: SF-295
HCT-116 = system: HCT-116
MDA-MB-231 = system: MDA-MB-231
M14 = system: M14
Hs-578T = system: Hs-578T
A549 = system: A549
Malme-3M = system: Malme-3M
RXF 393 = system: RXF 393
SNB-19 = system: SNB-19
SF-539 = system: SF-539
BT-549 = system: BT-549
OVCAR-8 = system: OVCAR-8
T47D = system: T47D
CCRF-CEM = system: CCRF-CEM
HOP-92 = system: HOP-92

Measured: GI50

CSc1[nH]cnc1C(N)=S
inactive: RPMI-8226 > 100 µM | UACC-257 > 100 µM | SK-OV-3 > 100 µM | NCI-H226 > 100 µM | 786-0 > 100 µM | SF-295 > 100 µM | HCT-116 > 100 µM | MDA-MB-231 > 100 µM | M14 > 100 µM | Hs-578T > 100 µM | A549 > 100 µM | Malme-3M > 100 µM | RXF 393 > 100 µM | SNB-19 > 100 µM | SF-539 > 100 µM | BT-549 > 100 µM | OVCAR-8 > 100 µM | T47D > 100 µM

CCOC(=O)c1cc(C(O)P2(=O)N(CC(C)(C)C)[C@@H]3CCCC[C@H]3N2CC(C)(C)C)cn1C(=O)OC(C)(C)C (stereo not given in full)
inactive: RPMI-8226 12.7 µM | UACC-257 14.4 µM | SK-OV-3 20 µM | NCI-H226 20.6 µM | 786-0 15.6 µM | SF-295 15 µM | HCT-116 11.2 µM | MDA-MB-231 16 µM | M14 16.2 µM | Hs-578T 16.9 µM | A549 15.7 µM | Malme-3M 13.7 µM | RXF 393 12 µM | SNB-19 19.5 µM | BT-549 17 µM | OVCAR-8 24.8 µM | T47D 15.1 µM

O=C(O)CC[P+](c1ccccc1)(c1ccccc1)c1ccccc1
inactive: CCRF-CEM 50.7 µM | RPMI-8226 3.21 µM | UACC-257 23.2 µM | SK-OV-3 88.5 µM | NCI-H226 53.5 µM | 786-0 30.6 µM | SF-295 79.6 µM | HCT-116 21.3 µM | MDA-MB-231 57.5 µM | M14 23.1 µM | Hs-578T 48.3 µM | A549 45.4 µM | Malme-3M 16.3 µM | RXF 393 > 100 µM | SNB-19 24.2 µM | BT-549 21.1 µM | OVCAR-8 43.5 µM | T47D 7.94 µM

CN(C)Cc1cc(C(C)(C)C)cc(CNC2CCCCC2)c1O
inactive: CCRF-CEM 12.9 µM | RPMI-8226 16.7 µM | UACC-257 26.2 µM | SK-OV-3 30.7 µM | 786-0 27.9 µM | SF-295 23 µM | HCT-116 25.4 µM | HOP-92 19.5 µM | MDA-MB-231 42.3 µM | M14 16.1 µM | Hs-578T 61.2 µM | A549 29.6 µM | Malme-3M 25.6 µM | RXF 393 29.2 µM | SNB-19 > 100 µM | SF-539 17.7 µM | BT-549 76.7 µM | T47D 63.5 µM

COC1C(OC(=O)c2ccc(C)[nH]2)C(O)C(Oc2ccc3c(O)c(NC(=O)c4ccc(O)c(CC=C(C)C)c4)c(=O)oc3c2Cl)OC1(C)C (stereo not given)
inactive: CCRF-CEM 18.1 µM | RPMI-8226 8.22 µM | UACC-257 54 µM | SK-OV-3 20.4 µM | NCI-H226 12.5 µM | 786-0 15.8 µM | SF-295 17.7 µM | HCT-116 16.4 µM | MDA-MB-231 21.1 µM | M14 16 µM | Hs-578T 16.1 µM | A549 24.3 µM | Malme-3M 15.5 µM | SNB-19 15.7 µM | SF-539 18 µM | BT-549 17 µM | OVCAR-8 17.9 µM | T47D 15.9 µM

CC(=O)OC1(C)C(=O)OC/C2=C/CN(C)CCC(OC(=O)C(O)(C(C)Cl)CC1C)C2=O.c1ccccc1 (stereo not given)
inactive: CCRF-CEM > 100 µM | RPMI-8226 > 100 µM | UACC-257 > 100 µM | SK-OV-3 > 100 µM | NCI-H226 > 100 µM | 786-0 > 100 µM | SF-295 > 100 µM | HCT-116 > 100 µM | HOP-92 > 100 µM | MDA-MB-231 > 100 µM | M14 > 100 µM | Hs-578T > 100 µM | A549 > 100 µM | SNB-19 > 100 µM | SF-539 > 100 µM | BT-549 > 100 µM | OVCAR-8 > 100 µM | T47D > 100 µM

CC1=C/C(=N\O)C(C(O)(C(F)(F)F)C(F)(F)F)C(C)(C)C1 (stereo not given)
inactive: CCRF-CEM > 10 µM | UACC-257 > 10 µM | SK-OV-3 > 10 µM | NCI-H226 > 10 µM | 786-0 > 10 µM | SF-295 > 10 µM | HCT-116 > 10 µM | HOP-92 > 10 µM | MDA-MB-231 > 10 µM | M14 > 10 µM | Hs-578T > 10 µM | A549 > 10 µM | Malme-3M > 10 µM | SNB-19 > 10 µM | SF-539 > 10 µM | BT-549 > 10 µM | OVCAR-8 > 10 µM | T47D > 10 µM

Nc1c(Cl)ncnc1N[C@@H]1C[C@H]1CO
inactive: CCRF-CEM > 100 µM | UACC-257 > 100 µM | 786-0 > 100 µM | SF-295 > 100 µM | HCT-116 > 100 µM | HOP-92 > 100 µM | MDA-MB-231 > 100 µM | M14 > 100 µM | Hs-578T > 100 µM | A549 > 100 µM | RXF 393 > 100 µM | SNB-19 > 100 µM | SF-539 > 100 µM | BT-549 > 100 µM | OVCAR-8 > 100 µM | T47D > 100 µM

CCO[C@@H]1CCC([S+]([O-])c2ccc(C)cc2)=CO1 (stereo not given in full)
inactive: RPMI-8226 > 100 µM | UACC-257 > 100 µM | NCI-H226 > 100 µM | 786-0 > 100 µM | SF-295 > 100 µM | HCT-116 > 100 µM | MDA-MB-231 > 100 µM | Hs-578T > 100 µM | Malme-3M > 100 µM | RXF 393 > 100 µM | SNB-19 > 100 µM | BT-549 > 100 µM | OVCAR-8 > 100 µM | T47D > 100 µM

OC(Cc1ccc2ccccc2n1)(C(F)(F)Cl)C(F)(F)Cl
inactive: CCRF-CEM > 10 µM | UACC-257 > 10 µM | SK-OV-3 > 10 µM | NCI-H226 > 10 µM | 786-0 > 10 µM | SF-295 > 10 µM | HCT-116 > 10 µM | HOP-92 > 10 µM | MDA-MB-231 > 10 µM | M14 > 10 µM | Hs-578T > 10 µM | A549 > 10 µM | Malme-3M > 10 µM | SNB-19 > 10 µM | SF-539 > 10 µM | BT-549 > 10 µM | OVCAR-8 > 10 µM | T47D > 10 µM

O=C(O)C12C3C4(C(=O)O)C1C1(C(=O)O)C2C3(C(=O)O)C41 (stereo not given)
inactive: CCRF-CEM > 100 µM | RPMI-8226 > 100 µM | UACC-257 > 100 µM | 786-0 > 100 µM | SF-295 4.4 µM | HCT-116 > 100 µM | HOP-92 > 100 µM | MDA-MB-231 > 100 µM | M14 > 100 µM | Hs-578T > 100 µM | A549 > 100 µM | Malme-3M > 100 µM | SNB-19 > 100 µM | SF-539 > 100 µM | BT-549 > 100 µM | OVCAR-8 > 100 µM | T47D > 100 µM
